Assay results: PubChem BioAssay (NCI)
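Growth conditions: 96-well plates. Treatment: test compound, 48 hours, 5 concentrations. Analysis: linear interpolation between bracketing concentrations; unreached endpoints set to highest concentration. TGI: total growth inhibition.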

What was measured:
Assay in all cases: NCI anticancer screen, dose series, 48 h
RXF 393 renal = tested on: RXF 393 renal
SNB-78 CNS = tested on: SNB-78 CNS
HCT-116 colon = tested on: HCT-116 colon
NCI-H23 lung = tested on: NCI-H23 lung
SN12C renal = tested on: SN12C renal
SF-268 CNS = tested on: SF-268 CNS
ACHN renal = tested on: ACHN renal
SNB-75 CNS = tested on: SNB-75 CNS
HOP-62 NSCLC = tested on: HOP-62 NSCLC
A498 renal = tested on: A498 renal
SK-MEL-28 melanoma = tested on: SK-MEL-28 melanoma
KM12 colon = tested on: KM12 colon
HOP-18 NSCLC = tested on: HOP-18 NSCLC
NCI-H226 lung = tested on: NCI-H226 lung
LOX IMVI melanoma = tested on: LOX IMVI melanoma
SK-MEL-5 melanoma = tested on: SK-MEL-5 melanoma
DLD-1 colon = tested on: DLD-1 colon
A549 NSCLC = tested on: A549 NSCLC
IGROV1 ovarian = tested on: IGROV1 ovarian
UO-31 renal = tested on: UO-31 renal
HOP-92 NSCLC = tested on: HOP-92 NSCLC
OVCAR-4 ovarian = tested on: OVCAR-4 ovarian
KM20L2 colon = tested on: KM20L2 colon
SK-MEL-2 melanoma = tested on: SK-MEL-2 melanoma
OVCAR-8 ovarian = tested on: OVCAR-8 ovarian
K-562 leukemia = tested on: K-562 leukemia
DMS 273 small cell lung = tested on: DMS 273 small cell lung
HCT-15 colon = tested on: HCT-15 colon
SW-620 colon = tested on: SW-620 colon
NCI-H460 lung = tested on: NCI-H460 lung
SF-539 CNS = tested on: SF-539 CNS
HCC-2998 colon = tested on: HCC-2998 colon
CCRF-CEM leukemia = tested on: CCRF-CEM leukemia
M14 melanoma = tested on: M14 melanoma
HT29 colon = tested on: HT29 colon
TK-10 renal = tested on: TK-10 renal
SR leukemia = tested on: SR leukemia
SF-295 CNS = tested on: SF-295 CNS
MALME-3M melanoma = tested on: MALME-3M melanoma
UACC-62 melanoma = tested on: UACC-62 melanoma
786-0 renal = tested on: 786-0 renal
EKVX NSCLC = tested on: EKVX NSCLC
COLO 205 colon = tested on: COLO 205 colon
OVCAR-3 ovarian = tested on: OVCAR-3 ovarian
LXFL 529 NSCLC = tested on: LXFL 529 NSCLC
SK-OV-3 ovarian = tested on: SK-OV-3 ovarian
OVCAR-5 ovarian = tested on: OVCAR-5 ovarian
NCI-H522 lung = tested on: NCI-H522 lung
SNB-19 CNS = tested on: SNB-19 CNS
U251 CNS = tested on: U251 CNS
CAKI-1 renal = tested on: CAKI-1 renal
UACC-257 melanoma = tested on: UACC-257 melanoma
M19-MEL melanoma = tested on: M19-MEL melanoma
HL-60(TB) leukemia = tested on: HL-60(TB) leukemia

Q: Which results are given for `Nc1nc[n+](Cc2ccccc2)c2ncn(Cc3ccccc3)c12`?
A: TGI (RXF 393 renal): 71 µM; TGI (SNB-78 CNS): > 100 µM; TGI (HCT-116 colon): > 100 µM; TGI (NCI-H23 lung): > 100 µM; TGI (SN12C renal): > 100 µM; TGI (SF-268 CNS): > 100 µM; TGI (ACHN renal): > 100 µM; TGI (SNB-75 CNS): > 100 µM; TGI (HOP-62 NSCLC): > 100 µM; TGI (A498 renal): > 100 µM; TGI (SK-MEL-28 melanoma): > 100 µM; TGI (KM12 colon): > 100 µM; TGI (HOP-18 NSCLC): > 100 µM; TGI (NCI-H226 lung): > 100 µM; TGI (LOX IMVI melanoma): > 100 µM; TGI (SK-MEL-5 melanoma): > 100 µM; TGI (DLD-1 colon): > 100 µM; TGI (A549 NSCLC): > 100 µM; TGI (IGROV1 ovarian): > 100 µM; TGI (UO-31 renal): > 100 µM; TGI (HOP-92 NSCLC): 96.6 µM; TGI (OVCAR-4 ovarian): > 100 µM; TGI (KM20L2 colon): > 100 µM; TGI (SK-MEL-2 melanoma): > 100 µM; TGI (OVCAR-8 ovarian): > 100 µM; TGI (K-562 leukemia): > 100 µM; TGI (DMS 273 small cell lung): > 100 µM; TGI (HCT-15 colon): > 100 µM; TGI (SW-620 colon): > 100 µM; TGI (NCI-H460 lung): > 100 µM; TGI (SF-539 CNS): > 100 µM; TGI (HCC-2998 colon): 60.4 µM; TGI (CCRF-CEM leukemia): > 100 µM; TGI (M14 melanoma): 86.3 µM; TGI (HT29 colon): > 100 µM; TGI (TK-10 renal): > 100 µM; TGI (SR leukemia): > 100 µM; TGI (SF-295 CNS): > 100 µM; TGI (MALME-3M melanoma): > 100 µM; TGI (UACC-62 melanoma): > 100 µM; TGI (786-0 renal): > 100 µM; TGI (EKVX NSCLC): > 100 µM; TGI (COLO 205 colon): 82.8 µM; TGI (OVCAR-3 ovarian): > 100 µM; TGI (LXFL 529 NSCLC): > 100 µM; TGI (SK-OV-3 ovarian): > 100 µM; TGI (OVCAR-5 ovarian): > 100 µM; TGI (NCI-H522 lung): > 100 µM; TGI (SNB-19 CNS): > 100 µM; TGI (U251 CNS): > 100 µM; TGI (CAKI-1 renal): > 100 µM; TGI (UACC-257 melanoma): > 100 µM; TGI (M19-MEL melanoma): > 100 µM; TGI (HL-60(TB) leukemia): > 100 µM
